{
  "source": "paper PMC12040169",
  "about": "(PLOS Biology, 2025)",
  "data": [
    {"experiment": "in vitro", "conditions": "human, hela cells, % viability", "units": {"viability at 28.5 h, 10 µM": "%"}, "values": [
      {"smiles": "O=C(O)Cc1ccc(NC(=O)C2Cc3ccccc3C(=O)O2)cc1", "note": "(stereo not drawn) [CBK269406]", "viability at 28.5 h, 10 µM": 85.1},
      {"smiles": "CC(C)c1ccc(/C=C/C(=O)NCc2ccc3occc3c2)cc1", "note": "[CBK149620]", "viability at 28.5 h, 10 µM": 93.3},
      {"smiles": "COCc1ccc(C(=O)NCC2CCCOC2)o1", "note": "(stereo not drawn) [CBK282188]", "viability at 28.5 h, 10 µM": 83.3},
      {"smiles": "CS(=O)(=O)N(Cc1ccccc1)c1ccc(C(=O)N2CCN(Cc3ccccc3)CC2)cc1", "note": "[CBK264134]", "viability at 28.5 h, 10 µM": 114},
      {"smiles": "Clc1ccccc1COc1cccc(/C=N/Nc2nc(N3CCCC3)nc(N3CCCC3)n2)c1", "note": "[CBK019076]", "viability at 28.5 h, 10 µM": 89.8},
      {"smiles": "CN(Cc1ccncc1)C(=O)c1cccc(S(=O)(=O)NCC2CC2)c1", "note": "[CBK305365]", "viability at 28.5 h, 10 µM": 95.6},
      {"smiles": "Fc1ccccc1-c1nccnc1NCc1cccs1", "note": "[CBK038088]", "viability at 28.5 h, 10 µM": 106},
      {"smiles": "CCCc1cc(C2CCCCCN2C(=O)c2c(C)noc2C)no1", "note": "(stereo not drawn) [CBK284919]", "viability at 28.5 h, 10 µM": 87.7},
      {"smiles": "Cc1ccc(C(=O)O)cc1NS(=O)(=O)c1ccc2c(c1)OCCO2", "note": "[CBK297497]", "viability at 28.5 h, 10 µM": 90.7},
      {"smiles": "COc1ncc(-c2cnc3[nH]c(=O)n(Cc4ccc(S(C)(=O)=O)cc4)c3n2)cn1", "note": "[CBK065053]", "viability at 28.5 h, 10 µM": 103},
      {"smiles": "Cc1nc(C)n(CC2CCCN(Cc3cn4c(C)cccc4n3)C2)n1", "note": "(stereo not drawn) [CBK304007]", "viability at 28.5 h, 10 µM": 97.7},
      {"smiles": "FC(F)(F)c1cc(-c2cn3ccnc3c(NCCc3cccnc3)n2)cc(C(F)(F)F)c1", "note": "[CBK066146]", "viability at 28.5 h, 10 µM": 98.1},
      {"smiles": "O=C(N/N=C/c1cc(Br)cc(Br)c1O)C(Oc1ccccc1)Oc1ccccc1", "note": "[CBK262164]", "viability at 28.5 h, 10 µM": 95.6},
      {"smiles": "CC(C)NC(=O)N(C)C1CCN(c2ncnc3ccccc23)CC1", "note": "[CBK306224]", "viability at 28.5 h, 10 µM": 92.4},
      {"smiles": "COc1ccc(Cl)cc1S(=O)(=O)N1CCC(C(=O)NCc2cccnc2)CC1", "note": "[CBK269878]", "viability at 28.5 h, 10 µM": 93.4},
      {"smiles": "Cc1ccc(C(=O)N(Cc2ccncc2)C2CCCCC2)cc1C", "note": "[CBK085386]", "viability at 28.5 h, 10 µM": 97.9},
      {"smiles": "O=C(NC1CCCOC1)c1cnn(-c2ccc(F)cc2)c1", "note": "(stereo not drawn) [CBK283248]", "viability at 28.5 h, 10 µM": 89.4},
      {"smiles": "Nc1ccc(C(=O)Nc2ccc(Nc3cc(-c4ccco4)ncn3)cc2)cc1", "note": "[CBK091099]", "viability at 28.5 h, 10 µM": 96.5},
      {"smiles": "CC(=O)Nc1cccc(-n2nnnc2SC2CCCCC2=O)c1", "note": "(stereo not drawn) [CBK304600]", "viability at 28.5 h, 10 µM": 95.4},
      {"smiles": "CCc1nc(C(C)NC(=O)COc2nn(C)c3nc(C)cc(C)c23)cs1", "note": "(stereo not drawn) [CBK306024]", "viability at 28.5 h, 10 µM": 93.3},
      {"smiles": "COc1cc(-c2nccnc2NCc2ccc(OC(F)(F)F)cc2)cc(OC)c1OC", "note": "[CBK038063]", "viability at 28.5 h, 10 µM": 117},
      {"smiles": "Cc1cc2c(N3CCCC(NS(C)(=O)=O)C3)nccc2o1", "note": "(stereo not drawn) [CBK306464]", "viability at 28.5 h, 10 µM": 93.4},
      {"smiles": "Cn1c(N2CCOCC2)cc(=O)c2ccccc21", "note": "[CBK007775]", "viability at 28.5 h, 10 µM": 93.7},
      {"smiles": "Cc1cc(C)cc(Nc2c([N+](=O)[O-])nn(-c3cccc(Cl)c3)[n+]2[O-])c1", "note": "[CBK268254]", "viability at 28.5 h, 10 µM": 105},
      {"smiles": "C/C(=N\\NC(=N)SC1CC(=O)N(c2ccc(C(=O)O)cc2)C1=O)c1cccs1", "note": "(stereo not drawn) [CBK262471]", "viability at 28.5 h, 10 µM": 103},
      {"smiles": "O=C1Cc2cc3ccccc3cc2C2(CCN(C(=O)C3CCC3C(=O)O)CC2)N1", "note": "(stereo not drawn) [CBK047252]", "viability at 28.5 h, 10 µM": 92.5},
      {"smiles": "CN1CCN(c2ccc(-c3cnc(N)c(NC4CCOCC4)n3)cc2)CC1", "note": "[CBK064114]", "viability at 28.5 h, 10 µM": 88.8},
      {"smiles": "C=CCn1c(Cc2csc(NC(=O)c3ccc(Cl)cc3)n2)n[nH]c1=S", "note": "[CBK295318]", "viability at 28.5 h, 10 µM": 86.7},
      {"smiles": "CN1CCN(c2ccc(C(=O)O)cc2)CC1", "note": "[CBK264773]", "viability at 28.5 h, 10 µM": 94.8},
      {"smiles": "Cc1cc(C)c(NC(=O)CSc2nc(C)c(Cc3ccccc3)c(O)n2)c([N+](=O)[O-])c1", "note": "[CBK268715]", "viability at 28.5 h, 10 µM": 86.8},
      {"smiles": "Oc1nc(O)c2c(n1)NC1(CCC1)[C@@H]1C[C@@H](O)[C@@H](O)[C@H]21", "note": "[CBK303249]", "viability at 28.5 h, 10 µM": 91.4},
      {"smiles": "CSCCCNC(=O)N(C)C1CCN(C)C1", "note": "(stereo not drawn) [CBK155995]", "viability at 28.5 h, 10 µM": 104},
      {"smiles": "CCN(c1ccccc1C(=O)O)S(=O)(=O)/C=C/c1ccccc1", "note": "[CBK287236]", "viability at 28.5 h, 10 µM": 96.7},
      {"smiles": "O=C(Cc1ccsc1)N1CCC[C@@H]1Cn1c(=O)oc2ccccc21", "note": "[CBK284530]", "viability at 28.5 h, 10 µM": 91.2},
      {"smiles": "COc1ccc(-c2ccc(C(=O)N(C)C)c(N(C)C(C)=O)n2)cc1", "note": "[CBK076500]", "viability at 28.5 h, 10 µM": 99.1},
      {"smiles": "c1csc(Sc2nccnc2N2CCCC2)n1", "note": "[CBK093805]", "viability at 28.5 h, 10 µM": 107},
      {"smiles": "O=C(O)CN1CCN(c2ncnc3sc4c(c23)CCCC4)CC1", "note": "[CBK286836]", "viability at 28.5 h, 10 µM": 99.5},
      {"smiles": "c1ccc(CN2CCN(Cc3ccccc3)C2c2cccnc2)cc1", "note": "[CBK260885]", "viability at 28.5 h, 10 µM": 93.2},
      {"smiles": "CCOc1cc(OCC)cc(C(=O)N2CCC3(CC2)CC(=O)c2c(OC)cccc2O3)c1", "note": "[CBK168012]", "viability at 28.5 h, 10 µM": 108},
      {"smiles": "O=C(CCS(=O)(=O)c1ccccc1)Nc1ccccc1N1CCNCC1", "note": "[CBK028285T]", "viability at 28.5 h, 10 µM": 99.8},
      {"smiles": "CCCCOc1ccc(NC(=O)Nc2cc3cccnc3c(Br)n2)cc1", "note": "[CBK063291]", "viability at 28.5 h, 10 µM": 78.1},
      {"smiles": "CC(=O)Nc1ccc(S(=O)(=O)N2CCN(CCO)CC2)cc1", "note": "[CBK262196]", "viability at 28.5 h, 10 µM": 95.1},
      {"smiles": "CCOC(=O)C1CCCN(C(=O)Cn2cnc(-c3cccs3)cc2=O)C1", "note": "(stereo not drawn) [CBK304210]", "viability at 28.5 h, 10 µM": 89.3},
      {"smiles": "CCN(CC)CCN1C(=O)C(O)=C(C(=O)c2ccc3c(c2)OCO3)C1c1cccnc1", "note": "(stereo not drawn) [CBK266465]", "viability at 28.5 h, 10 µM": 99.6},
      {"smiles": "O=C(O)c1cc(S(=O)(=O)Nc2nnc(C(F)(F)F)s2)c(F)cc1Cl", "note": "[CBK062022]", "viability at 28.5 h, 10 µM": 95},
      {"smiles": "O=C(COC(=O)c1cc(-c2ccc(Cl)cc2)nc2ccccc12)c1cccc([N+](=O)[O-])c1", "note": "[CBK293923]", "viability at 28.5 h, 10 µM": 83},
      {"smiles": "CC(=O)N1CCC2(CCCC[C@H]3CN(Cc4coc(C)n4)CC[C@@H]3NC(=O)CNC2=O)CC1", "note": "[CBK292165]", "viability at 28.5 h, 10 µM": 101},
      {"smiles": "O=C(CCN1C(=O)/C(=C\\C=C\\c2ccccc2)SC1=S)Nc1cccc(C(=O)O)c1", "note": "[CBK264798]", "viability at 28.5 h, 10 µM": 109},
      {"smiles": "COc1cc(Nc2cc(-c3ccc(F)c(F)c3)ncn2)cc(OC)c1OC", "note": "[CBK090711]", "viability at 28.5 h, 10 µM": 94.7},
      {"smiles": "Cc1c[nH]c(CN(C)C(=O)c2cccc(NC(=O)C3CCCC3)c2)n1", "note": "[CBK307282]", "viability at 28.5 h, 10 µM": 91.4},
      {"smiles": "CCOC(=O)Nc1ccc2c(c1)N(C(=O)CN(C)C)c1ccccc1S2", "note": "[CBK261290C]", "viability at 28.5 h, 10 µM": 106},
      {"smiles": "OCCCn1c(-c2ccc(Cl)cc2)cn2c3ccccc3nc12", "note": "[CBK262900]", "viability at 28.5 h, 10 µM": 103},
      {"smiles": "O=C(Cc1cccc(F)c1)N1CCC(c2cc3ncccc3[nH]2)CC1", "note": "[CBK283374]", "viability at 28.5 h, 10 µM": 100},
      {"smiles": "c1cc2c(cc1CNc1nnn[nH]1)OCO2", "note": "[CBK018783]", "viability at 28.5 h, 10 µM": 91.5},
      {"smiles": "NC(=O)c1ccc(-c2cncc(N3CCN(CCO)CC3)n2)cc1", "note": "[CBK065392]", "viability at 28.5 h, 10 µM": 96.5},
      {"smiles": "Cc1cc(C)nc(Nc2ccc(C3CCCN(S(=O)(=O)c4ccc(F)cc4)C3)nc2)n1", "note": "(stereo not drawn) [CBK285987]", "viability at 28.5 h, 10 µM": 86},
      {"smiles": "COc1ccccc1-c1nccnc1NCc1ccc(C(F)(F)F)cc1", "note": "[CBK036788]", "viability at 28.5 h, 10 µM": 109},
      {"smiles": "CCn1cncc1CN1CCCC(c2cc3cccnc3[nH]2)C1", "note": "(stereo not drawn) [CBK284993]", "viability at 28.5 h, 10 µM": 98.5},
      {"smiles": "COc1cccc(C(NC(=O)C2CCN(C(=O)c3ccccc3)CC2)c2ccccn2)c1", "note": "(stereo not drawn) [CBK060036]", "viability at 28.5 h, 10 µM": 103},
      {"smiles": "Cc1cc(COC(=O)N2CCc3ccccc32)cc(C)n1", "note": "[CBK200134]", "viability at 28.5 h, 10 µM": 81.4},
      {"smiles": "COC(=O)c1csc2nc(NCCCO)sc12", "note": "[CBK058832]", "viability at 28.5 h, 10 µM": 91.4},
      {"smiles": "O=C(NCCOc1ccccc1)c1nccnc1-c1ccc(COc2ccc3c(c2)CCCC3)cc1", "note": "[CBK050852]", "viability at 28.5 h, 10 µM": 91.2}
    ]},
    {"experiment": "in vitro", "conditions": "human, hela cells, % viability, bulk resorufin, single well", "units": {"viability at 28.5 h, 10 µM": "%"}, "values": [
      {"smiles": "COc1cc(C=C2C(=O)NC(=O)NC2=O)cc(I)c1OCc1ccc(Cl)cc1Cl", "note": "[CBK262528]", "viability at 28.5 h, 10 µM": 91.8}
    ]}
  ]
}
